Where two headings read alike, the source gives them in different places.

Data set [1] relates to fecal total bile acid (FBA). In words: Fecal bile acids in monkeys, LUM001 for 14 days. It is filed as in vivo, rhesus monkeys. The following applies: n=5. The text has this:
Fifteen experimentally naive male rhesus monkeys were utilized in this study. These animals were 2.1 to 4.2 years of age and weighed between 2.8 to 4.3 kg on the day prior to treatment initiation. HARLAN TEKLAD PRIMATE DIET® (Certified) was provided daily in amounts appropriate for the size and age of the animals. The diet was supplemented with fruit or vegetables 2-3 times weekly. Small bits of fruit, cereal or other treats were given to the animals following dose administration and periodically as part of facility's environmental enrichment program. Beginning prior to treatment initiation, only non-fat treats were provided to the animals (e.g., standard primate treats including peanut butter, sunflower seeds, baby food, nuts, pudding, and worms were specifically not permitted). Tap water was available ad libitum via an automatic watering device. Each animal was administered a dose of the LUM001 contained within gelatin capsules or the control article (empty gelatin capsules) once daily for 14 consecutive days. Fecal samples for determination of bile acid content were collected over approximately 24-hour periods beginning three days prior to treatment initiation and continuing until scheduled termination of dosing on Day 15. Samples were stored at −70 C until analysis.
Fecal samples were collected to determine the fecal total bile acid (FBA) concentration for each animal. Fecal collections were made during the final 72 hours of the study, for three consecutive 24-hour periods between 9:00 am and 10:00 am each day, prior to dosing and feeding. The separate daily collections from each dog were weighed, combined and homogenized with distilled water in a food processor to generate a homogeneous slurry. Homogenate (1.4 g) was extracted in a final concentration ratio of 2:0.6 of 50% (v/v) tertiary butanol/distilled water for 45 minutes in a 37° C. water bath and subjected to centrifugation for 13 minutes at 2000×g. The concentration of bile acids (mmolesgram homogenate) was determined using a 96-well enzymatic assay system. Aliquots of the fecal extracts (20 μl) were added to two sets of triplicate wells in a 96 well assay plate. A standardized sodium taurocholate solution and a standardized fecal extract solution (previously made from pooled samples and characterized for its bile acid concentration) were also analyzed for assay quality control. Aliquots of sodium taurocholate (20 μl), were serially diluted to generate a standard curve containing 30-540 nmoles/well. A 230 μl aliquot of reaction mixture containing 1M hydrazine hydrate, 0.1 M pyrophosphate and 0.46 mg/ml NAD was added to each well. […] Following 60 minutes of incubation at room temperature, the optical density at 340 nm was measured and the mean of each set of triplicate samples was calculated. […]

The nature of data set [2]: Pharmacokinetics of LUM001 after oral solution and capsule in dogs. The data set is classed as in vivo, Beagle dogs. The following applies: for Cmax / Tmax / AUC(0-t) / bioavailability: female, Beagle, dog, plasma; for Cmax / Tmax / AUC(0-t): po, 7.5 mg/kg; for AUC(0-t): read-out: AUC(0-24 h); for bioavailability: read-out: BA (bioavailability). How it is done: Three fasted female Beagle dogs were administered LUM001 either as an oral solution at doses of 1 or 7.5 mg LUM001 free form/kg or in an oral capsule at a dose of 7.5 mg LUM001 free form/kg in a cross-over design. A dose of 7.5 mg LUM001 free form/kg was also administered as an oral solution to fed beagle dogs to evaluate the effect of food on plasma concentrations of LUM001.
Blood samples of approximately 3 mL was collected by venipuncture or indwelling catheter into chilled tubes containing heparin at the following timepoints: 0 (predose), 0.5, 1, 1.5, 2, 3, 5, 6, 8, 10, and 24 hours. The plasma samples were prepared by centrifugation of blood within 30 minutes after sample collection. All samples were stored at −20° C.±5° C. until analysis to study the relative exposures of LUM001 free form after capsule or oral solution dosing.

For data set [3], the system named is serum total bile acid (SBA). The following applies: previous experiments; cited from earlier work.
Where [4] appears, read: oral capsule 7.5 mg/kg free form, fasted.
Setting [5] is: oral solution 7.5 mg/kg free form, fed.

The term Cmax denotes the highest concentration seen after dosing. The term Tmax denotes the time from dosing to the highest level. Usually bioavailability stands for dose-corrected exposure relative to a reference, in per cent. Regarding `CCCCC1(CCCC)CS(=O)(=O)c2ccc(N(C)C)cc2[C@@H](c2ccc(OCc3ccc(C[N+]45CCN(CC4)CC5)cc3)cc2)[C@H]1O` [LUM001], the “Fecal Total Bile Acids” value in data set [1] (5 mg/kg once daily 14 days, Day 15) is 23 µmol/day/kg; in data set [1] (5 mg/kg once daily, Prestudy), 6 µmol/day/kg; in data set [1] (50 mg/kg once daily 14 days, Day 15) it was 63 µmol/day/kg; in data set [1] (50 mg/kg once daily, Prestudy), 6 µmol/day/kg. In addition, the Cmax in data set [2] (setting [4]) was 4.24 ng/mL; in data set [2] (setting [5]), 1.28 ng/mL. Also, the time to peak (Tmax) is 5 h in data set [2] (setting [4]) and 0.5 h in data set [2] (setting [5]). Further, the figures for the AUC(0-t) in data set [2] (setting [4]) and in data set [2] (setting [5]) were 33.7 ng·h/mL and 3.9 ng·h/mL, respectively. In addition, the bioavailability is less than 0.1% in data set [2] (setting [4]) and less than 0.1% in data set [2] (oral solution 1 mg/kg free form, fasted). For the same compound, the “BA (bioavailability)” value in data set [2] (oral solution 7.5 mg/kg free form, fasted) is recorded as less than 0.1%; in data set [2] (setting [5]), less than 0.1%. In addition, the “Time LUM001 remains active” value in data set [3] is on record as “more than 4.5 hours”.

These data come from US20140271734A1, “BILE ACID RECYCLING INHIBITORS FOR TREATMENT OF BARRETT'S ESOPHAGUS AND GASTROESOPHAGEAL REFLUX DISEASE” (LUMENA PHARMACEUTICALS, INC., priority 2013, published 2014).
